Test results taken from patent publication US6333338A, “Bispiperidines as antithrombotic agents” (Laboratoire L. Lafon, priority 1998, dated 2001).
Counter-ions that a name gives are not always drawn. Like-named read-outs stand apart in the source and are kept apart here.

What was measured:
guinea pig platelets [1] = experiment: Ex vivo/vitro inhibition of platelet aggregation after administration via the gastric route in guinea pigs; parameters: species or system guinea pig (Dunkin-Hartley); conditions: Cavia porcellus, Platelet, 10 mg/kg, fasted guinea pigs
Summary of the method: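 Compounds dosed by the gastric route to Dunkin-Hartley guinea pigs, with random allocation of treatments. Blood then drawn and platelets freshly separated and tested as in the in vitro aggregation study. Inhibition measured for intensity and duration of action; IC50 derived from per-concentration inhibition.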

guinea pig platelets [2] = experiment: In vitro inhibition of collagen-induced platelet aggregation, guinea pig platelets (PRP); type: cell-based, guinea pig (male Dunkin-Hartley); conditions: Cavia porcellus, Platelet, 0.05 h, collagen 1 μg/ml, 3 minutes of contact at 37° C.
Summary of the method: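 Citrated PRP from male Dunkin-Hartley guinea pigs, adjusted to 200,000–400,000 platelets/mm^3, with PPP as reference. Aggregation induced by collagen (1 μg/ml) and followed by optical aggregometry; inhibition measured after 3 min compound contact at 37° C with stirring.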

human platelets = experiment: In vitro inhibition of collagen-induced platelet aggregation, human platelets (PRP); type: cell-based; conditions: 0.05 h, collagen 5 μg/ml, 3 minutes of contact at 37° C., read-out: IC50 (M) in vitro, Man
Description: A study of the inhibitory activity of the compounds of formula I on platelet aggregation was carried out in vitro, i.e. by direct contact of solutions of variable concentrations of the compounds with platelets freshly separated from a sample of total blood, taken under standardized conditions, from laboratory animals (guinea pigs) and from healthy human subjects who have not received any substances or drugs that might interfere with blood clotting. The anti-platelet-aggregating activity was also studied ex vivo/vitro, i.e. after administration of the substances claimed to guinea pigs to measure the intensity and duration of the anti-aggregating action induced by the fraction of the test product absorbed and circulating in the blood.
Venous blood is taken from a group of ten healthy human subjects of the same age, by puncture into a vein of the fold of the elbow and is collected in a glass tube containing aqueous 0.129 M sodium citrate solution (1 volume of citrate solution per 9 volumes of blood). Each tube is then centrifuged a first time at 20° C. and 100 g for 15 minutes in order to obtain the platelet-rich plasma (PRP); after removing this PRP, the tube is again centrifuged at 2000 g for 15 minutes in order this time to remove the platelet-poor plasma (PPP).
For each identified sample of PRP, the platelets are counted using a Coulter ZM counter. Each sample is then used to study the variation in inhibition of the platelet aggregation triggered by the addition of a Chromo-par Reagent collagen glucose solution from Coultronics (used at a concentration of 5 μg/ml) as a function of the addition of increasing concentrations of each compound in a range covering the interval 10^-8 M→10^-5 M, (example of concentrations: 10^-8 M, […], 6×10^-6 M, 4×10^-6 M, 2×10^-6 M, 10^-6 M, […], 10^-5 M). Beforehand, for each compound, an aqueous 10^-3 M solution is prepared. A control test intended to check the possible effect of the solvents (reference value) on the platelet aggregation is introduced into each measurement series, and is measured after 3 minutes of contact at 37° C. with agitation.
From the percentages of inhibition of the platelet aggregation measured for each concentration of each compound, the 50% inhibitory concentration (IC50) is calculated.

[3] = 1 h before blood sampling, read-out: % of g.r. inhibition guinea pig ex vivo, d = 10 mg/kg, 1 h
[4] = 2 h before blood sampling, read-out: % of g.r. inhibition guinea pig ex vivo, d = 10 mg/kg, 2 h

| Structure (SMILES) | inhibition at 10 mg/kg (guinea pig platelets [1]; [3]) | inhibition at 10 mg/kg (guinea pig platelets [1]; [4]) | IC50 (guinea pig platelets [2]) | IC50 (human platelets) |
| --- | --- | --- | --- | --- |
| O=C(CNC(=O)C(CCC1CCNCC1)CCC1CCNCC1)NCC(NS(=O)(=O)c1ccc(Cl)cc1)C(=O)O (centres unmarked) [Example 34, 2-([(4-Chlorophenyl)sulphonyl]amino)-3-{[2-({4-(4-piperidyl)-2-[2-(4-piperidyl)ethyl]butanoyl}amino)acetyl]amino}propanoic Acid Dihydrochloride] | -19% | -8% | 500 nM | 8.9e-07 M |
| O=C(CNC(=O)C(CCC1CCNCC1)CCC1CCNCC1)NCC(NS(=O)(=O)c1ccc(F)cc1)C(=O)O (centres unmarked) [Example 35, 2-{[(4-Fluorophenyl)sulphonyl]amino}-3-{[2-({4-(4-piperidyl)-2-[2-(4-piperidyl)ethyl]butanoyl}amino)acetyl]amino}propanoic Acid Dihydrochloride] | -5% | 0% | 18 nM | 1.3e-08 M |
| COc1ccc2cc(S(=O)(=O)N[C@@H](CNC(=O)CNC(=O)C(CCC3CCNCC3)CCC3CCNCC3)C(=O)O)ccc2c1 [Example 36, (2S)-2-{[(6-Methoxy-2-naphthyl)sulphonyl]amino}-3-{[2-({4-(4-piperidyl)-2-[2-(4-piperidyl)ethyl]butanoyl}amino)acetyl]amino}propanoic Acid Dihydrochloride] | -63% | -69% | 41 nM | 7.2e-08 M |
| Cc1cc(C)c(S(=O)(=O)NC(CNC(=O)CNC(=O)C(CCC2CCNCC2)CCC2CCNCC2)C(=O)O)c(C)c1 (centres unmarked) [Example 37, 2-[(Mesitylsulphonyl)amino]-3-{[2-({4-(4-piperidyl)-2-[2-(4-piperidyl)ethyl]butanoyl}amino)acetyl]amino}propanoic Acid Dihydrochloride] | -9% | -16% | 140 nM | 1.3e-07 M |
| CN(C)c1cccc2c(S(=O)(=O)NC(CNC(=O)CNC(=O)C(CCC3CCNCC3)CCC3CCNCC3)C(=O)O)cccc12 (centres unmarked) [Example 49, 2-({[5-(Dimethylamino)-1-naphthyl)sulphonyl}amino)-3-{[2-({4-(4-piperidyl)-2-[2-(4-piperidyl)ethyl]butanoyl}amino)acetyl]amino}propanoic Acid Trihydrochloride] | -69% | -68% | 49 nM | 5.6e-08 M |
| COc1ccc(S(=O)(=O)N[C@@H](CNC(=O)CNC(=O)C(CCC2CCNCC2)CCC2CCNCC2)C(=O)O)c2ccccc12 [Example 52, 2-([(4-Methoxy-1-naphthyl)sulphonyl]amino)-3-{[2-({4-(4-piperidyl)-2-[2-(4-piperidyl)ethyl]butanoyl}amino)acetyl]amino}propanoic Acid Dihydrochloride] | -58% | -30% | 35 nM | 9.3e-08 M |
| COc1cc2ccc(S(=O)(=O)N[C@@H](CNC(=O)CNC(=O)C(CCC3CCNCC3)CCC3CCNCC3)C(=O)O)cc2cc1OC [Example 53, 2-{[(6,7-Dimethoxy-2-naphthyl)sulphonyl]amino}-3-{[2-({4-(4-piperidyl)-2-[2-(4-piperidyl)ethyl]butanoyl}amino)acetyl]amino}propanoic Acid Dihydrochloride] | -73% | -9% | 37 nM | 7.3e-08 M |
| O=C(CNC(=O)C(CCC1CCNCC1)CCC1CCNCC1)NC[C@H](NS(=O)(=O)c1cc2ccccc2s1)C(=O)O [Example 59, 2-[(1-Benzothiophen-2-ylsulphonyl)amino]-3-{[2-({4-(4-piperidyl)-2-[2-(4-piperidyl)ethyl]butanoyl}amino)acetyl]amino}propanoic Acid Dihydrochloride] | -66% | -34% | 66 nM | 1.5e-07 M |
| O=C(CNC(=O)C(CCC1CCNCC1)CCC1CCNCC1)NCC(NS(=O)(=O)c1ccc(Cl)c2ccccc12)C(=O)O (centres unmarked) [Example 63, 2-{[(4-Chloro-1-naphthyl)sulphonyl]amino}-3-{[2-({4-(4-piperidyl)-2-[2-(4-piperidyl)ethyl]butanoyl}amino)acetyl]amino}propanoic Acid Dihydrochloride] | -69% | -50% | 53 nM | 1e-06 M |
| O=C(CNC(=O)C(CCC1CCNCC1)CCC1CCNCC1)NCC(NS(=O)(=O)c1ccc(-c2ccccc2)s1)C(=O)O (centres unmarked) [Example 71, 2-{[(5-Phenyl-2-thienyl))sulphonyl]amino}-3-{[2-({4-(4-piperidyl)-2-[2-(4-piperidyl)ethyl]butanoyl}amino)acetyl]amino}propanoic Acid Dihydrochloride] | -72% | -70% | 63 nM | 1.9e-07 M |
| O=C(CCNC(=O)C(CCC1CCNCC1)CCC1CCNCC1)NCC(NS(=O)(=O)c1ccc2ccccc2c1)C(=O)O (centres unmarked) [Example 78, 2-[(2-Naphthylsulphonyl)amino]-3-{[3-({4-(4-piperidyl)-2-[2-(4-piperidyl)ethyl]butanoyl}amino)propanoyl]amino}propanoic Acid Dihydrochloride] | -65% | -73% | 46 nM | 1e-07 M |
